Data from ChEMBL document CHEMBL1201862, “PubChem BioAssay data set” (2004).
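Briefly, cells in 96-well plates were exposed to five compound concentrations for 48 h, and endpoints were estimated by linear interpolation. Abbreviation: GI50, concentration required for 50% inhibition of growth.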 Calls of active or inactive are those of the source. No stated cut-off is given here; in the data, active = GI50 up to about 1.1 µM and inactive = higher.

How the values were obtained:
Assay in all cases: inhibition of tumour cell growth, NCI panel, 48 h
[1] = system: KM12
[2] = system: SW-620
[3] = system: SK-MEL-5
[4] = system: HOP-92
[5] = system: RXF 393
[6] = system: M14
[7] = system: SNB-19
[8] = system: CCRF-CEM
[9] = system: HT-29
[10] = system: COLO 205
[11] = system: HCC 2998
[12] = system: Malme-3M
[13] = system: MDA-N
[14] = system: NCI/ADR-RES
[15] = system: HOP-62
[16] = system: OVCAR-5
[17] = system: SN12C
[18] = system: UO-31
[19] = system: Hs-578T

| SMILES | GI50 [1] | GI50 [2] | GI50 [3] | GI50 [4] | GI50 [5] | GI50 [6] | GI50 [7] | GI50 [8] | GI50 [9] | GI50 [10] | GI50 [11] | GI50 [12] | GI50 [13] | GI50 [14] | GI50 [15] | GI50 [16] | GI50 [17] | GI50 [18] | GI50 [19] |
| --- | --- | --- | --- | --- | --- | --- | --- | --- | --- | --- | --- | --- | --- | --- | --- | --- | --- | --- | --- |
| C[n+]1cn(C2=C([N-]S(=O)(=O)c3ccccc3)C(=O)c3ccccc3C2=O)c2ccccc21 | 15.9 µM (inactive) | 28.6 µM (inactive) | 6.08 µM (inactive) | 42.1 µM (inactive) | 20.3 µM (inactive) | 16.5 µM (inactive) | 19.3 µM (inactive) | 39.6 µM (inactive) | 6.67 µM (inactive) | 2.85 µM (inactive) | 18.9 µM (inactive) | 1.55 µM (inactive) | 12.8 µM (inactive) | > 100 µM (inactive) | 47.9 µM (inactive) | > 100 µM (inactive) | 31.3 µM (inactive) | > 100 µM (inactive) | 41.9 µM (inactive) |
| C[C@H]1CC[C@]2(NC1)O[C@H]1C[C@H]3[C@@H]4CC[C@H]5C[C@@H](O[C@@H]6O[C@H](CO)[C@H](O[C@@H]7O[C@H](CO)[C@@H](O)[C@H](O[C@@H]8OC[C@@H](O)[C@H](O)[C@H]8O)[C@H]7O[C@@H]7O[C@H](CO)[C@@H](O)[C@H](O)[C@H]7O)[C@H](O)[C@H]6O)CC[C@]5(C)[C@H]4CC[C@]3(C)[C@H]1[C@@H]2C [TOMATINE] | 1.98 µM (inactive) | 2.04 µM (inactive) | 2.23 µM (inactive) | 1.99 µM (inactive) | 1.8 µM (inactive) | 1.43 µM (inactive) | 1.24 µM (inactive) | 2.52 µM (inactive) | 1.91 µM (inactive) | 2 µM (inactive) | 0.993 µM (active) | 0.605 µM (active) | 0.558 µM (active) | 1.9 µM (inactive) | 1.63 µM (inactive) | 1.24 µM (inactive) | 1.43 µM (inactive) | 1.42 µM (inactive) | 1.64 µM (inactive) |
| CCCCC[C@@H]1OCO[C@@]2(C)/C=C(C)\C=C/C(=O)O[C@H]([C@@H](C)[C@@H](O)[C@H](C)[C@@]3(O)C[C@@H](O[C@H]4C[C@@H](O)[C@H](O)[C@@H](C)O4)[C@H](C)[C@@H](C)O3)[C@@H](OC)/C=C\C=C(\C)C[C@@H]1[C@@H]2O (stereo in doubt) | < 0.005 µM (active) | < 0.005 µM (active) | < 0.005 µM (active) | < 0.005 µM (active) | < 0.005 µM (active) | < 0.005 µM (active) | 0.0995 µM (active) | < 0.005 µM (active) | < 0.005 µM (active) | < 0.005 µM (active) | < 0.005 µM (active) | < 0.005 µM (active) | < 0.005 µM (active) | 0.5 µM (active) | 0.0573 µM (active) | < 0.005 µM (active) | 0.0231 µM (active) | – | 1.2 µM (inactive) |
| NC1=Nc2ccccc2Sc2nccn21 | 24.2 µM (inactive) | 32.3 µM (inactive) | 16.5 µM (inactive) | 15.1 µM (inactive) | 25.8 µM (inactive) | 17 µM (inactive) | 40.3 µM (inactive) | 27 µM (inactive) | 23 µM (inactive) | 15.4 µM (inactive) | 21 µM (inactive) | 17.2 µM (inactive) | 23 µM (inactive) | 30.5 µM (inactive) | 24.4 µM (inactive) | 48.8 µM (inactive) | 36.3 µM (inactive) | 23.9 µM (inactive) | 25.3 µM (inactive) |
| CCOC(=O)C(NC(=O)CC(C)C)(Nc1ccc(S(=O)(=O)Nc2nc(C)cc(C)n2)cc1)C(F)(F)F (stereo unspecified) | > 100 µM (inactive) | > 100 µM (inactive) | > 100 µM (inactive) | > 100 µM (inactive) | > 100 µM (inactive) | > 100 µM (inactive) | > 100 µM (inactive) | > 100 µM (inactive) | > 100 µM (inactive) | > 100 µM (inactive) | 7.87 µM (inactive) | > 100 µM (inactive) | > 100 µM (inactive) | > 100 µM (inactive) | > 100 µM (inactive) | > 100 µM (inactive) | > 100 µM (inactive) | > 100 µM (inactive) | > 100 µM (inactive) |
| Oc1ccc(Cl)cc1-c1cc(-c2ccccc2)nc(S)n1 | 92.5 µM (inactive) | > 100 µM (inactive) | > 100 µM (inactive) | 19.2 µM (inactive) | 71.3 µM (inactive) | > 100 µM (inactive) | 42.9 µM (inactive) | > 100 µM (inactive) | > 100 µM (inactive) | > 100 µM (inactive) | > 100 µM (inactive) | > 100 µM (inactive) | > 100 µM (inactive) | 97.9 µM (inactive) | 22.6 µM (inactive) | > 100 µM (inactive) | 93.1 µM (inactive) | 24 µM (inactive) | 29.2 µM (inactive) |
| C/C(Cc1ccc2c(c1)OCO2)=N\NC(=O)C(C)Sc1nnc(SC(C)C(=O)N/N=C(\C)Cc2ccc3c(c2)OCO3)s1 (stereo unspecified) | > 100 µM (inactive) | > 100 µM (inactive) | 69.3 µM (inactive) | 61.1 µM (inactive) | > 100 µM (inactive) | > 100 µM (inactive) | > 100 µM (inactive) | 66.2 µM (inactive) | > 100 µM (inactive) | > 100 µM (inactive) | > 100 µM (inactive) | > 100 µM (inactive) | > 100 µM (inactive) | > 100 µM (inactive) | > 100 µM (inactive) | > 100 µM (inactive) | – | > 100 µM (inactive) | > 100 µM (inactive) |
